# Experiments:
# Type in all cases: in vivo, human
# subjects [1] = test: VAS-Sustained Energy; set-up: VAS-Sustained Energy rating, Mean / VAS-Sustained Energy changes from baseline, Mean Difference ± SE / VAS-Sustained Energy Δ, Mean Difference ± SE / VAS-Sustained Energy area under the curve, Mean Difference ± SE / VAS-Sustained Energy area under the curve, Mean: scale not given here; details: for VAS-Sustained Energy Δ, effect size d / VAS-Sustained Energy Δ from 0 min, Mean / VAS-Sustained Energy Δ, Mean Difference ± SE: females; for VAS-Sustained Energy Δ, effect size d: vs placebo; for VAS-Sustained Energy Δ, Mean Difference ± SE: B vs A (placebo)
# Protocol: (§1) The inventors have discovered various compositions and methods of improving various indices of neurological and neuroenergetic functions by administering 100 mg (once daily) dosages of DYNAMINE™ (dosage between 1.0 and 1.4 mg/kg) as described in the following:
# (§2) All neuroenergetic tests as listed below were performed and data were collected after 0 and 4 days of assigned supplements (with acute effects also measured at day 4 over 180 minutes):
# (§3) All VAS Measurement (Energy, Sustained Energy, Mental Stamina, Ability to Focus, Ability to Concentrate, Motivation to Accomplish Difficult Tasks, Drive, Vigor, Level of Positive Outlook, Mood, Feelings of Well-Being, Tolerate Stress); Day 0: Two tests were completed. The average of both scores was computed and this value was used in all statistical analysis. Day 4 (0 minutes after ingesting dose #4): Two tests were completed. The average of both scores was computed and this value was used in all statistical analysis. Day 4 (60, 120, and 180 minutes after ingesting dose #4): One test was completed at each time point.
# (§4) Neuroenergic parameters are inherently subjective, nevertheless significant in human behavior and well-being. To allow for a standardization among different subjects, the following experiments were performed using a visual analog scale using anchor statements (lowest possible/highest possible) in which subjects were asked to rate their subjective experience with respect to the specific neuroenergic parameters tested.
# VAS-Sustained Energy: In this subjective test, subjects were asked to rate their personal level of energy on a VAS scale using the prompt of “My level of sustained energy right now is . . . ” (with rating lowest possible to highest possible)”. Results were collected as noted above and Table 6 provides exemplary results for Day 0 versus Day 4 ratings, whereas Table 7 provides exemplary acute results measured at Day 4 over a duration of 180 minutes.
# subjects [2] = test: VAS-Motivation; set-up: VAS-Motivation rating, Mean / VAS-Motivation changes from baseline, Mean Difference ± SE / VAS-Motivation area under the curve, Mean Difference ± SE / VAS-Motivation area under the curve, Mean: scale not given here
# Protocol: as §1, §2, §3, §4
# VAS-Motivation: In this subjective test, subjects were asked to rate their personal level of energy on a VAS scale using the prompt of “My motivation to accomplish difficult tasks right now is . . . ” (with rating lowest possible to highest possible)”. Results were collected as noted above and Table 19 provides exemplary results for Day 0 versus Day 4 ratings, whereas Table 20 provides exemplary acute results measured at Day 4 over a duration of 180 minutes.
# subjects [3] = test: VAS-Ability to concentrate; set-up: VAS-Ability to concentrate rating, Mean / VAS-Ability to concentrate changes from baseline, Mean Difference ± SE / VAS-Ability to concentrate area under the curve, Mean Difference ± SE / VAS-Ability to concentrate area under the curve, Mean: scale not given here
# Protocol: as §1, §2, §3, §4
# VAS-Ability to concentrate: In this subjective test, subjects were asked to rate their personal level of energy on a VAS scale using the prompt of “My ability to concentrate right now is . . . ” (with rating lowest possible to highest possible)”. Results were collected as noted above and Table 16 provides exemplary results for Day 0 versus Day 4 ratings, whereas Table 17 provides exemplary acute results measured at Day 4 over a duration of 180 minutes.
# subjects [4] = test: VAS-Energy; set-up: VAS-Energy rating, Mean / VAS-Energy changes from baseline, Mean Difference ± SE / VAS-Energy Δ, Mean Difference ± SE / VAS-Energy area under the curve, Mean Difference ± SE / VAS-Energy area under the curve, Mean: scale not given here; details: for VAS-Energy Δ, effect size d / VAS-Energy Δ from 0 min, Mean / VAS-Energy Δ, Mean Difference ± SE: females; for VAS-Energy Δ, effect size d: vs placebo; for VAS-Energy Δ, Mean Difference ± SE: B vs A (placebo)
# Protocol: as §1, §2, §3, §4
# VAS-Energy: In this subjective test, subjects were asked to rate their personal level of energy on a VAS scale using the prompt of “My level of energy right now is . . . ” (with rating lowest possible to highest possible)”. Results were collected as noted above and Table 2 provides exemplary results for Day 0 versus Day 4 ratings, whereas Table 3 provides exemplary acute results measured at Day 4 over a duration of 180 minutes.
# [5] = 100 mg once daily, Day 4, 0-180 min
# [6] = 100 mg once daily, Day 4, 0-180 min, vs Group A (placebo)
# [7] = 100 mg once daily, Day 4, 0 min after dose #4
# [8] = 100 mg once daily, Day 4, 60 min-0 min, vs Group A (placebo)
# [9] = 100 mg once daily, Day 4, 60 min after dose #4
# [10] = 100 mg once daily, Day 4, 120 min-0 min, vs Group A (placebo)
# [11] = 100 mg once daily, Day 4, 120 min after dose #4
# [12] = 100 mg once daily, Day 4, 180 min-0 min, vs Group A (placebo)
# [13] = 100 mg once daily, Day 4, 180 min after dose #4
# [14] = 100 mg once daily, Day 4, 60 min
# [15] = 100 mg once daily, Day 4, 120 min
# [16] = 100 mg once daily, Day 4, 120 min, listed as B
# [17] = 100 mg once daily, Day 4, 180 min
# [18] = 100 mg once daily, Day 4, Δ @ 60 min
# [19] = 100 mg once daily, Day 4, Δ @ 120 min
# [20] = 100 mg once daily, Day 4, Δ @ 180 min
compound,measurement,setting,value
"COc1nc2c(c(=O)n1C)n(C)c(=O)n2C [methylliberine, 2-methoxy-1,7,9-trimethylpurine-6,8-dione]","VAS-Sustained Energy area under the curve, Mean",subjects [1]; [5],1073
same,"VAS-Sustained Energy area under the curve, Mean Difference ± SE",subjects [1]; [6],45.2 ± 41.7
same,"VAS-Sustained Energy area under the curve, effect size d",subjects [1]; [6],−0.13
same,"VAS-Sustained Energy rating, Mean",subjects [1]; [7],5.7
same,"VAS-Sustained Energy changes from baseline, Mean Difference ± SE",subjects [1]; [8],0.22 ± 0.22
same,"VAS-Sustained Energy changes from baseline, effect size d",subjects [1]; [8],0.27
same,"VAS-Sustained Energy rating, Mean",subjects [1]; [9],6.2
same,"VAS-Sustained Energy changes from baseline, Mean Difference ± SE",subjects [1]; [10],−0.11 ± 0.25
same,"VAS-Sustained Energy changes from baseline, effect size d",subjects [1]; [10],−0.11
same,"VAS-Sustained Energy rating, Mean",subjects [1]; [11],6.3
same,"VAS-Sustained Energy changes from baseline, Mean Difference ± SE",subjects [1]; [12],0.24 ± 0.23
same,"VAS-Sustained Energy changes from baseline, effect size d",subjects [1]; [12],0.24
same,"VAS-Sustained Energy rating, Mean",subjects [1]; [13],6.5
same,"VAS-Sustained Energy rating, Mean",subjects [1]; Day 0 (before supplementation),5.6
same,"VAS-Sustained Energy Δ, effect size d",subjects [1]; [14],0.86
same,"VAS-Sustained Energy Δ, effect size d",subjects [1]; [15],0.62
same,"VAS-Sustained Energy Δ, effect size d",subjects [1]; [16],0.03
same,"VAS-Sustained Energy Δ, effect size d",subjects [1]; [17],0.62
same,"VAS-Sustained Energy Δ from 0 min, Mean",subjects [1]; [18],0.85
same,"VAS-Sustained Energy Δ, Mean Difference ± SE",subjects [1]; [18],0.74 ± 0.29
same,"VAS-Sustained Energy Δ from 0 min, Mean",subjects [1]; [19],0.88
same,"VAS-Sustained Energy Δ, Mean Difference ± SE",subjects [1]; [19],0.02 ± 0.35
same,"VAS-Sustained Energy Δ from 0 min, Mean",subjects [1]; [20],1.28
same,"VAS-Sustained Energy Δ, Mean Difference ± SE",subjects [1]; [20],0.72 ± 0.31
same,"VAS-Motivation area under the curve, Mean",subjects [2]; [5],1113
same,"VAS-Motivation area under the curve, Mean Difference ± SE",subjects [2]; [6],36.8 ± 37.4
same,"VAS-Motivation area under the curve, effect size d",subjects [2]; [6],0.11
same,"VAS-Motivation rating, Mean",subjects [2]; [7],5.7
same,"VAS-Motivation changes from baseline, Mean Difference ± SE",subjects [2]; [8],−0.07 ± 0.27
same,"VAS-Motivation changes from baseline, effect size d",subjects [2]; [8],−0.08
same,"VAS-Motivation rating, Mean",subjects [2]; [9],6.2
same,"VAS-Motivation changes from baseline, Mean Difference ± SE",subjects [2]; [10],−0.25 ± 0.27
same,"VAS-Motivation changes from baseline, effect size d",subjects [2]; [10],−0.25
same,"VAS-Motivation rating, Mean",subjects [2]; [11],6.2
same,"VAS-Motivation changes from baseline, Mean Difference ± SE",subjects [2]; [12],0.53 ± 0.27
same,"VAS-Motivation changes from baseline, effect size d",subjects [2]; [12],0.50
same,"VAS-Motivation rating, Mean",subjects [2]; [13],6.6
same,"VAS-Motivation rating, Mean",subjects [2]; Day 0 (before supplementation),5.8
same,"VAS-Ability to concentrate area under the curve, Mean",subjects [3]; [5],1162
same,"VAS-Ability to concentrate area under the curve, Mean Difference ± SE",subjects [3]; [6],48.1 ± 38.7
same,"VAS-Ability to concentrate area under the curve, effect size d",subjects [3]; [6],0.16
same,"VAS-Ability to concentrate rating, Mean",subjects [3]; [7],5.9
same,"VAS-Ability to concentrate changes from baseline, Mean Difference ± SE",subjects [3]; [8],0.26 ± 0.26
same,"VAS-Ability to concentrate changes from baseline, effect size d",subjects [3]; [8],0.28
same,"VAS-Ability to concentrate rating, Mean",subjects [3]; [9],6.5
same,"VAS-Ability to concentrate changes from baseline, Mean Difference ± SE",subjects [3]; [10],0.15 ± 0.27
same,"VAS-Ability to concentrate changes from baseline, effect size d",subjects [3]; [10],0.14
same,"VAS-Ability to concentrate rating, Mean",subjects [3]; [11],6.5
same,"VAS-Ability to concentrate changes from baseline, Mean Difference ± SE",subjects [3]; [12],0.70 ± 0.23
same,"VAS-Ability to concentrate changes from baseline, effect size d",subjects [3]; [12],0.68
same,"VAS-Ability to concentrate rating, Mean",subjects [3]; [13],6.8
same,"VAS-Ability to concentrate rating, Mean",subjects [3]; Day 0 (before supplementation),5.9
same,"VAS-Energy area under the curve, Mean",subjects [4]; [5],1115
same,"VAS-Energy area under the curve, Mean Difference ± SE",subjects [4]; [6],49.6 ± 36.3
same,"VAS-Energy area under the curve, effect size d",subjects [4]; [6],0.15
same,"VAS-Energy rating, Mean",subjects [4]; [7],5.8
same,"VAS-Energy changes from baseline, Mean Difference ± SE",subjects [4]; [8],0.24 ± 0.22
same,"VAS-Energy changes from baseline, effect size d",subjects [4]; [8],0.28
same,"VAS-Energy rating, Mean",subjects [4]; [9],6.2
same,"VAS-Energy changes from baseline, Mean Difference ± SE",subjects [4]; [10],−0.14 ± 0.27
same,"VAS-Energy changes from baseline, effect size d",subjects [4]; [10],−0.14
same,"VAS-Energy rating, Mean",subjects [4]; [11],6.2
same,"VAS-Energy changes from baseline, Mean Difference ± SE",subjects [4]; [12],0.28 ± 1.24
same,"VAS-Energy changes from baseline, effect size d",subjects [4]; [12],0.28
same,"VAS-Energy rating, Mean",subjects [4]; [13],6.5
same,"VAS-Energy rating, Mean",subjects [4]; Day 0 (before supplementation),5.5
same,"VAS-Energy Δ, effect size d",subjects [4]; [14],0.81
same,"VAS-Energy Δ, effect size d",subjects [4]; [15],0.69
same,"VAS-Energy Δ, effect size d",subjects [4]; [16],−0.03
same,"VAS-Energy Δ, effect size d",subjects [4]; [17],0.69
same,"VAS-Energy Δ from 0 min, Mean",subjects [4]; [18],0.66
same,"VAS-Energy Δ, Mean Difference ± SE",subjects [4]; [18],0.72 ± 0.23
same,"VAS-Energy Δ from 0 min, Mean",subjects [4]; [19],0.42
same,"VAS-Energy Δ, Mean Difference ± SE",subjects [4]; [19],−0.03 ± 0.38
same,"VAS-Energy Δ from 0 min, Mean",subjects [4]; [20],1.08
same,"VAS-Energy Δ, Mean Difference ± SE",subjects [4]; [20],0.73 ± 1.11

# Reference: patent publication US20260256794A1, “Oral Dynamine Formulations and Methods Therefor” (Ortho-Nutra, LLC, priority 2023, published 2026)
